Reference: ChEMBL document CHEMBL4130392, “Eugenol derived immunomodulatory molecules against visceral leishmaniasis” (Eur J Med Chem, 2017)

How the values were obtained:
Leishmania donovani [1] = experiment: Antileishmanial activity against Leishmania donovani MHOM/IN/AG/83 promastigotes after 48 hrs by MTT assay; type: functional, organism-based; settings: MHOM/IN/AG/83, 48 h
Leishmania donovani [2] = experiment: Antileishmanial activity against Leishmania donovani MHOM/IN/AG/83 amastigotes infected in BALB/c mouse peritoneal macrophages after 42 hrs by Giemsa staining-based microscopic analysis; type: functional, organism-based; settings: MHOM/IN/AG/83, 42 h
RAW264.7 = experiment: Cytotoxicity against mouse RAW264.7 cells after 48 hrs by MTT assay; type: cell-based; settings: RAW264.7, 48 h
Peritoneal macrophage [3] = experiment: Cytotoxicity against BALB/c mouse peritoneal macrophages after 48 hrs by MTT assay; type: cell-based
[4] = Therapeutic index, ratio of IC50 for mouse RAW264.7 cells to IC50 for Leishmania donovani MHOM/IN/AG/83 promastigotes; type: toxicity; settings: read-out: Ratio IC50
[5] = Therapeutic index, ratio of EC50 for BALB/c mouse peritoneal macrophages to EC50 for Leishmania donovani MHOM/IN/AG/83 amastigotes; type: toxicity; settings: read-out: Ratio EC50
Peritoneal macrophage [6] = experiment: Induction of NO generation in Leishmania donovani MHOM/IN/AG/83 infected BALB/c mouse peritoneal macrophages assessed as nitrite levels after 48 hrs by Griess assay relative to untreated control; type: functional; also: test concentration or dose not given here

| SMILES | IC50 (Leishmania donovani [1]) [µM] | EC50 (Leishmania donovani [2]) [µM] | IC50 (RAW264.7) [µM] | EC50 (Peritoneal macrophage [3]) [µM] | selectivity ratio [4] | selectivity ratio [5] | Activity (Peritoneal macrophage [6]) | Activity (Peritoneal macrophage [6]; record 2) [µM] |
| --- | --- | --- | --- | --- | --- | --- | --- | --- |
| C=CCc1ccc(OC)c(OC)c1 [METHYLEUGENOL] | 475 | 203 | 517 | 485 | 1.09 | 2.39 | Dose-dependent effect | 10.82 |
| C=CCOc1ccc(CC=C)cc1OC [ALLYLEUGENOL] | 238 | 120 | 385 | 353 | 1.64 | 2.95 | Dose-dependent effect | 13.86 |
| C=CCc1ccc(OC(=O)c2cccc([N+](=O)[O-])c2)c(OC)c1 | 76.9 | 26.2 | 255 | 218 | 3.33 | 8.36 | Dose-dependent effect | 24.58 |
| C=CCc1ccc(OC(=O)CCCCCCC)c(OC)c1 | 68.3 | 53.3 | 580 | 565 | 8.95 | 11 | Dose-dependent effect | 24.23 |
| C=CCc1ccc(OC(=O)[C@@H](N)Cc2c[nH]c3ccccc23)c(OC)c1 | 53 | 21.6 | 451 | 471 | 8.6 | 22.1 | Dose-dependent effect | 28.78 |
| C=CCc1ccc(OC(=O)c2ccc([N+](=O)[O-])cc2)c(OC)c1 | 82.4 | 26.7 | 261 | 244 | 3.18 | 9.21 | Dose-dependent effect | 27.28 |
| C=CCc1ccc(OC(=O)CCCCCC)c(OC)c1 | 103 | 59.6 | 512 | 491 | 4.95 | 8.3 | Dose-dependent effect | 25.84 |
| C=CCc1ccc(OC(=O)C2CCNCC2)c(OC)c1 | 89 | 66.3 | 261 | 307 | 2.96 | 4.66 | Dose-dependent effect | 21.55 |
| C=CCc1ccc(OCCCC)c(OC)c1 [N-BUTYLEUGENOL] | 309 | 147 | 329 | 345 | 1.07 | 2.35 | Dose-dependent effect | 14.23 |
| CCCCCCCCCCCCCCCCOP(=O)([O-])OCC[N+](C)(C)C [MILTEFOSINE] | 10.4 | 6.4 | 44.8 | 40.7 | 4.3 | 6.34 | Dose-dependent effect | 26.01 |
| C=CCc1ccc(OC(C)=O)c(OC)c1 [EUGENYL ACETATE] | 166 | 99.1 | 356 | 352 | 2.15 | 3.59 | Dose-dependent effect | 12.44 |
| C=CCc1ccc(OC(=O)CC)c(OC)c1 | 146 | 112 | 448 | 429 | 3.1 | 3.86 | Dose-dependent effect | 12.19 |
| C=CCc1ccc(OC(=O)CCC)c(OC)c1 | 64.5 | 72.1 | 233 | 191 | 3.61 | 2.71 | Dose-dependent effect | 23.08 |
| C=CCc1ccc(OC(=O)CCCC)c(OC)c1 | 106 | 65.6 | 368 | 353 | 3.49 | 5.41 | Dose-dependent effect | 24.39 |
| C=CCc1ccc(OCCCCCCCCCCCCCCCC)c(OC)c1 | 58.1 | 17.1 | 292 | 251 | 5.02 | 14.5 | Dose-dependent effect | 29.1 |
| C=CCc1ccc(OCCCCCCCCCCCC)c(OC)c1 | 52.5 | 26 | 299 | 292 | 5.76 | 11.4 | Dose-dependent effect | 28.12 |

| SMILES | IC50 (Leishmania donovani [1]) [µM] | EC50 (Leishmania donovani [2]) [µM] | IC50 (RAW264.7) [µM] | EC50 (Peritoneal macrophage [3]) [µM] | selectivity ratio [4] | selectivity ratio [5] | Activity (Peritoneal macrophage [6]) | Activity (Peritoneal macrophage [6]; record 2) [µM] |
| --- | --- | --- | --- | --- | --- | --- | --- | --- |
| C=CCc1ccc(OCCC)c(OC)c1 [PROPYLEUGENOL] | 133 | 156 | 110 | 111 | 0.83 | 0.71 | Dose-dependent effect | 10.64 |
| C=CCc1ccc(OC(=O)CCCCCCCCC)c(OC)c1 | 67.5 | 33.1 | 373 | 404 | 5.66 | 12.4 | Dose-dependent effect | 27.31 |
| C=CCc1ccc(OCCCCCCCCCC)c(OC)c1 | 49.9 | 29 | 412 | 272 | 8.61 | 9.67 | Dose-dependent effect | 26.17 |
| C=CCc1ccc(OCCCCC)c(OC)c1 | 90.8 | 83.4 | 178 | 164 | 1.96 | 1.97 | Dose-dependent effect | 12.95 |
| C=CCc1ccc(OC(=O)CCCCCCCCCCCCCCC)c(OC)c1 | 43.3 | 8.54 | 374 | 357 | 8.56 | 42.2 | Dose-dependent effect | 39.42 |
| C=CCc1ccc(OC(=O)CCCCCCCC)c(OC)c1 | 93.6 | 52.9 | 317 | 343 | 3.37 | 6.52 | Dose-dependent effect | 27.14 |
| C=CCc1ccc(OC(=O)[C@@H]2CCCN2)c(OC)c1 | 97.4 | 72.9 | 278 | 326 | 2.87 | 4.49 | Dose-dependent effect | 21.87 |
| C=CCc1ccc(OC(=O)c2c[nH]c3ccccc23)c(OC)c1 | 60.5 | 25.3 | 485 | 496 | 8.11 | 19.7 | Dose-dependent effect | 26.24 |
| C=CCc1ccc(OCCCCCCC)c(OC)c1 | 61.3 | 41.1 | 198 | 197 | 3.28 | 4.88 | Dose-dependent effect | 22.43 |
| C=CCc1ccc(OC(=O)c2ccccc2Cl)c(OC)c1 | 64.5 | 57.9 | 251 | 275 | 3.91 | 4.79 | Dose-dependent effect | 14.58 |
| C=CCc1ccc(OC(=O)c2ccc(F)cc2)c(OC)c1 | 61.3 | 78.4 | 364 | 400 | 5.93 | 5.24 | Dose-dependent effect | 14.56 |
| C=CCc1ccc(OCCCCCC)c(OC)c1 | 80.3 | 36.4 | 292 | 272 | 3.63 | 7.6 | Dose-dependent effect | 20.81 |
| C=CCc1ccc(OCCCCCCCCC)c(OC)c1 | 81.9 | 51.8 | 332 | 326 | 4.27 | 6.47 | Dose-dependent effect | 25.19 |
| C=CCc1ccc(OCCCCCCCC)c(OC)c1 | 62.3 | 48.7 | 357 | 393 | 5.85 | 8.3 | Dose-dependent effect | 26.01 |
| C=CCc1ccc(OC(=O)Cc2ccccc2)c(OC)c1 | 33.4 | 9.28 | 391 | 385 | 11.8 | 41.8 | Dose-dependent effect | 36.45 |
| C[C@@H]1[C@H](O)[C@@H](C)/C=C/C=C/C=C/C=C/C=C/C=C/C=C/[C@H](O[C@@H]2O[C@H](C)[C@@H](O)[C@H](N)[C@@H]2O)C[C@@H]2O[C@](O)(C[C@@H](O)C[C@@H](O)[C@H](O)CC[C@@H](O)C[C@@H](O)CC(=O)O[C@H]1C)C[C@H](O)[C@H]2C(=O)O [AMPHOTERICIN B] | 1.36 | 1.18 | 10 | 9.18 | 7.4 | 7.78 | Dose-dependent effect |  |
